We go through two compounds from US20080241115A1, “Use Of Mesenchymal Stem Cells Genetically Modified To Express A Suicide Gene For Treating A Cancer” (Ajou University Industry-Academic Cooperation Foundation, priority 2005, published 2008).

One test deals with 293T cells. The test can be described thus: Suicide effect control, MTT viability assay. The test is classed as cell-based. The conditions noted are these: normal 293T cells, 1,000 μM 5-FC. Here is the method:
(§1) Normal 293T cells and 293T/CD cells transformed with pMSCV-puro/CD prepared in Step 1 were plated at a density of 2,000 cells/well in a 24-well plate containing DMEM with 10% fetal bovine serum. After 24 hours, 5-FC was added to the cells at various concentrations (0-10 mM). The media was replaced with fresh medium containing 5-FC every 2 days for 1 week. […] The viability was estimated by measuring mitochondria NADPH activity by 3-(4,5-dimethyl-thiazol-2-yl)-2,5-diphenyltetrazolium bromide (MTT) assay. The cells were incubated in 200 μl of […] MTT (Sigma, U.S.A) in PBS for 4 hours. The solution was replaced with 200 μl of absolute dimethyl sulfoxide (DMSO, Sigma). After incubated at room temperature for 15 minutes, the absorbance at 540 nm was measured with an ELISA reader (Molecular Probe, U.S.A). The data in FIG. 4B are presented as averages ±S.E. with respect to that of the cells grown in the absence of 5-FC from 3 independent experiments.
In general terms: Tetrazolium assays rely on reduction of a dye to a coloured formazan, in cell work by metabolically active cells.

The next test deals with MSC cells. The test can be described thus: Suicide effect control in MSCs, MTT assay. The conditions noted are these: up to 1,000 μM 5-FC, 2 weeks. In kind it is cell-based, human. Here is the method:
(§2) MSC/CD or MSC cells were plated in growth medium at a density of 5,000 cells/well in a 6-well plate one day before exposure to 5-FC. The medium was replaced every 2 days with fresh growth medium containing 0-10 mM 5-FC for 2 weeks. […] The viability was estimated by measuring mitochondria NADPH activity using MTT assay as mentioned above with 293T/CD cells. The data are presented as averages ±S.E with respect to that of the untreated cells from 3 independent experiments (FIG. 6B).

The test system of another test is MSC/CD cells. Kind of test: Suicide effect of CD gene in MSC/CD cells, MTT assay and light microscopy. The test is classed as cell-based, human. As to the method: CD-expressing retrovirus was used to deliver the CD gene into MSCs. MSCs obtained in Step 1 of Example 1 were grown in growth medium (DMEM containing 10% FBS, 100 units/ml penicillin and 100 μg/ml streptomycin) at 37° C. and 5% CO2 until 70% confluence. CD-expressing retrovirus prepared in Example 2 was added to the culture with 1:1 dilution in the growth medium in the presence of 8 μg/ml polybrene (Sigma) for 8 hours and in the fresh growth medium for 16 hours. After the retroviral transduction was repeated 2 more times, the cells were split into 1:3 in growth medium containing 4 μg/ml puromycin (Sigma) for 14 days. The survived cells were pooled, and used in the subsequent experiments.
as §2

The subject of a further test is 293T/CD cells. Kind of test: Suicide effect of CD gene, MTT viability assay and phase contrast microscopy. The test is classed as cell-based. Here is the method: as §1
The subject of the next test is C6 glioma cells. Kind of test: Cytotoxic effect of 5-FU on glioma cells, MTT assay. In kind it is cell-based. The conditions noted are these: C6, 5-FU 1 week. As to the method:
(§3) To verify that 5-FU produced by MSC/CD is sufficient to induce cell death in various glioma cells, C6 (KCLB No. 10107), U373 (KCLB No. 30017), U87 (KCLB No. 30014) cells were freshly obtained from KCLB (Korean cell line bank) and plated in 96-well plates in growth medium at a density of 100 cells/well, 100 cells/well, and 500 cells/well, respectively. After 24 hours, 5-FU was added to the cells at 0.01-100 μM. After 1 week, cell viability was estimated by MTT assay as described above.

Another test relates to U373 glioma cells. The test is described as above. The test is classed as cell-based. The conditions noted are these: U373, 5-FU 1 week. As to the method:
as §3

Another test deals with U87 glioma cells. The description is as above. The conditions noted are these: U87, 5-FU 1 week. The test is classed as cell-based. As to the method: as §3

SMILES strings stand for the structures.

Turning to `Nc1nc(=O)[nH]cc1F` [5-FC, 5-fluorocytosine], the cell death entry in the test with 293T cells and in the test with MSC cells was “did not show cell death” in each case. In addition, the IC50 in the test on MSC/CD cells (Homo sapiens, 336 h, MSC/CD cells, 5-FC for 2 weeks, MTT, read-out: IC50 of cell death) was 332 µM; in the test on 293T/CD cells (Homo sapiens, HEK-293T, 168 h, 293T/CD cells, 5-FC for 1 week, MTT, read-out: IC50 of cell death), 296 µM. Moreover, the “cell death by light microscopy” value with MSC/CD cells (MSC/CD cells, 1,000 μM 5-FC for 2 weeks) was “almost died”. Also, the “concentration from which cell death was detected” value turned out to be 100 µM in the test with MSC/CD cells (MSC/CD cells, 5-FC for 2 weeks, MTT) and 10 µM in the test with 293T/CD cells (293T/CD cells, 5-FC for 1 week, MTT). Also, the “viability by phase contrast microscopy” value in the test with 293T/CD cells (293T/CD cells, 1,000 μM 5-FC) was “reduced”.
Take `O=c1[nH]cc(F)c(=O)[nH]1` [5-FU, 5-fluorouracil]: the “concentration at which cell death reached plateau” value with C6 glioma cells, with U373 glioma cells and in the test on U87 glioma cells was 10 µM in each case. Moreover, the IC50 with C6 glioma cells (C6 glioma, 168 h, read-out: IC50 of cell death) came out at 0.93 µM; in the test on U373 glioma cells (Homo sapiens, U373 MG, 168 h, read-out: IC50 of cell death) it was 5.34 µM; with U87 glioma cells (Homo sapiens, U-87 MG, 168 h, read-out: IC50 of cell death) it was 5.65 µM.

The term IC50 denotes the concentration that gives 50% inhibition.
